Here are results for seven compounds from patent publication US9200319B2, “Nucleotides and nucleosides and methods for their use in DNA sequencing” (Lasergen, Inc., priority 2008, dated 2015).

The structures appear in SMILES notation. Like-named read-outs stand apart in the source and are kept apart here. Where only a bound is given, the exact number is not on record here.

The term IC50 denotes the midpoint of a concentration-inhibition curve.

In experiment [1] the target is T1, THERMINATOR™ DNA polymerase (Thermococcus sp., UniProt Q56366, A485L/D141A/E143A).
T1 construct: purchased New England Biolabs
The experiment can be described thus: polymerase end point assay, mismatch discrimination (mismatched template bases). The class given is biochemical, Thermococcus species 9° N-7. How it is done:
(§1) Natural and modified nucleotides were tested for incorporation efficiency using the “polymerase end point assay” (Wu et al., 2007, which is incorporated herein by reference). This assay examines incorporation efficiency on matched and mismatched template bases. Incorporation efficiency is measured by determining the concentration at which the compound incorporates on half the primer-template complexes (IC50). Titrations of increasing compound concentration were performed to generate curves from which the IC50 can be determined.
(§2) The sequence of the template DNA is selected depending on which compound will be tested. For example, the first interrogation base after the primer in the template sequence is the complement base of the compound when measuring incorporation efficiency, and one of three mismatched bases when measuring mismatch discrimination properties.
The mismatch/match ratios represent the ability of the polymerase to distinguish between correctly incorporating against a matched template base and a mismatch one. Discrimination is considered sufficient when the mismatch/match ratio is greater than or equal to 100 (two orders of magnitude). […] Both natural dGTP and C^7-(2-nitrobenzyloxy)methyl-2′-dGTP (5p107) show mismatch/match ratios ranging from 10 to 360, and 10 to 250, respectively, two of which are below the 100-fold threshold. […] A similar trend is observed for the C^7-hydroxymethyl-dATP analogs. For the compounds shown in Table 1, substitution at the α-carbon of the 2-nitrobenzyl group increases mismatch discrimination in a stereo-specific manner.
(§3) The temperature cycle to complete primer annealing is 80° C. for 30 seconds, 57° C. for 30 seconds, then cooling to 4° C. The sequence of the template DNA is selected depending on which compound will be tested. For example, the first interrogation base after the primer in the template sequence is the complement base of the compound when measuring incorporation efficiency, and one of three mismatched bases when measuring mismatch discrimination properties.
(§4) To the annealed reaction, a DNA polymerase (e.g., THERMINATOR™ DNA polymerase, 0.25 units per reaction, New England Biolabs), 1× Thermopol Buffer, and a known concentration of either natural or modified nucleotide are added to each 10 μL reaction and incubated at 75° C. for 10 minutes, cooled on ice, and quenched with 10 μL of stop solution (98% formamide: 10 mM Na2EDTA, pH=8.0, 25 mg/ml Blue Dextran). Stopped reactions are heated to 75° C. for 30 seconds to denature the DNA, and then placed on ice. The extension products are analyzed on a 10% Long Ranger (Lonza) polyacrylamide gel using an ABI model 377 DNA sequencer.

Experiment [2] has as its target T1, THERMINATOR™ DNA polymerase. The experiment can be described thus: biochemical. Further details: species or system Thermococcus species 9° N-7. The method, then: as §1, §2
as §4, with “sequencer. Additional details are provided in Example 1, below.” for “sequencer.”
Polymerase Assays. Natural and modified nucleotides were tested for incorporation efficiency using the “polymerase end point assay” (Wu et al., 2007, which is incorporated herein by reference). This assay examines incorporation efficiency on matched and mismatched template bases. Incorporation efficiency is measured by determining the concentration at which the compound incorporates on half the primer-template complexes (IC50). Titrations of increasing compound concentration were performed to generate curves from which the IC50 can be determined.
The assay is performed by first annealing 5 nM of BODIPY-FL labeled primer with 40 nM template DNA in 1× Thermopol Buffer (20 mM Tris-HCl, pH 8.8; 10 mM (NH4)2SO4; 10 mM KCl; 2 mM MgSO4; 0.1% Triton X-100, New England BioLabs).
as §3, §4

The target is the same in experiment [3]. The experiment can be described thus: termination assay, weighted sum analysis on homopolymer repeat template. The class given is biochemical, Thermococcus species 9° N-7. Particulars: 1.0 = complete termination after a single incorporation. The method, then: A weighted sum of 1.0 represents complete termination after a single incorporation, while a value greater than 1.0 indicates incorporation beyond the +1 position (e.g. nucleotide read through). […] The assay is performed as described above for the polymerase end-point assay, except that the template used is a homopolymer repeat, thereby allowing for multiple incorporations of a given nucleotide compound.

[4] abbreviates: IC50 for incorporation, concentration at which the compound incorporates on half the primer-template complexes, complement template base.
[5] abbreviates: Adj IC50 Conc (nM), adjusted IC50 used to set the concentrations of the termination assay.

T1 sequence (Q56366 whole entry D141A/E143A/A485L): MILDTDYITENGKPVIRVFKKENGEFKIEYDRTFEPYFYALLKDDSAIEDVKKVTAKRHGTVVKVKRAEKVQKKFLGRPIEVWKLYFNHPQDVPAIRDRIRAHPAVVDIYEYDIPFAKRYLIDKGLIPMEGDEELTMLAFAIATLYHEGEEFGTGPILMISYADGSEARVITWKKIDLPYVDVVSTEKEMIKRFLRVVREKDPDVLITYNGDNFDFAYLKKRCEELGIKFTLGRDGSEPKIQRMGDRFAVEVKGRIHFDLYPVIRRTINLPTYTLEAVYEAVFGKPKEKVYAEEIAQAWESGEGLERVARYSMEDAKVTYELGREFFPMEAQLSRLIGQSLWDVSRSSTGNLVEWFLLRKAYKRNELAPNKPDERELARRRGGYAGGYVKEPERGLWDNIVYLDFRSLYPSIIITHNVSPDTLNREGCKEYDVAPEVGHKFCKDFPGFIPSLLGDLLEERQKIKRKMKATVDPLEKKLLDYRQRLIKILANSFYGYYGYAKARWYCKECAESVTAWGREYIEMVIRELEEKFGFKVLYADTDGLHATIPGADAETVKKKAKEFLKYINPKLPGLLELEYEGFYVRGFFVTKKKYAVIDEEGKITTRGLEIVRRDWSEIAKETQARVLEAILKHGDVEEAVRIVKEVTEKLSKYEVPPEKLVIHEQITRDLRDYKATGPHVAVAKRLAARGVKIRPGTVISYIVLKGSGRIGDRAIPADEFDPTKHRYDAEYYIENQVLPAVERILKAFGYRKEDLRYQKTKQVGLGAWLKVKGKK

`CC(C)C(OCc1cn([C@H]2C[C@H](O)[C@@H](COP(=O)(O)OP(=O)(O)OP(=O)(O)O)O2)c2nc(N)[nH]c(=O)c12)c1ccccc1[N+](=O)[O-]` (single isomer, unassigned) [5p143-ds1, 7-[1-(2-nitrophenyl)-2-methyl-propyloxy]methyl-7-deaza-2′-deoxyguanosine-5′-triphosphate]: the results for the “Mismatch/match ratio (10^2)” value in experiment [1] (template base "A"), in experiment [1] (template base "G") and in experiment [1] (template base "T") were >830 10^2, >21 10^2 and 5 10^2, respectively. The compound further registered an IC50 in experiment [2] (setting [4]) of 1.2 ± 0.2 nM.

Take `CC(C)C(OCc1cn([C@H]2C[C@H](O)[C@@H](COP(=O)(O)OP(=O)(O)OP(=O)(O)O)O2)c2nc(N)[nH]c(=O)c12)c1ccccc1[N+](=O)[O-]` (single isomer, unassigned) [5p143-ds2, 7-[1-(2-nitrophenyl)-2-methyl-propyloxy]methyl-7-deaza-2′-deoxyguanosine-5′-triphosphate]: the “Mismatch/match ratio (10^2)” value in experiment [1] (template base "A") is given as >770 10^2; in experiment [1] (template base "G"), >7.7 10^2; in experiment [1] (template base "T") it was 2.5 10^2. Also, half-maximal inhibition in experiment [2] (setting [4]) (IC50) was put at 1.3 ± 0.3 nM.

Take `Nc1nc2c(c(COCc3ccccc3[N+](=O)[O-])cn2[C@H]2C[C@H](O)[C@@H](COP(=O)(O)OP(=O)(O)OP(=O)(O)O)O2)c(=O)[nH]1` [5p107, 7-(2-nitrobenzyloxy)methyl-7-deaza-2′-deoxyguanosine-5′-triphosphate]: the “Mismatch/match ratio (10^2)” value is on record as 2.5 10^2 in experiment [1] (template base "A"), 0.4 10^2 in experiment [1] (template base "G") and 0.1 10^2 in experiment [1] (template base "T"). In experiment [2] (setting [4]), this compound displayed an IC50 of 1.5 ± 0.3 nM.

Take `Cc1cccc(C)c1COCc1cn([C@H]2C[C@H](O)[C@@H](COP(=O)(O)OP(=O)(O)OP(=O)(O)O)O2)c(=O)[nH]c1=O` [6p015, 5-(2,6-dimethylbenzyloxy)methyl-2′-deoxyuridine-5′-triphosphate]: the IC50 in experiment [2] (setting [5]) and in experiment [2] (setting [4]) was 1.4 nM throughout. Further, the “Average Weighted Sum ± SD” value in experiment [3] (1x IC50) was 0.56 ± 0.1; in experiment [3] (5x IC50), 1.5 ± 0.1; in experiment [3] (25x IC50), 2.2 ± 0.1.

Turning to `CC(C)(C)c1ccccc1COCc1cn([C@H]2C[C@H](O)[C@@H](COP(=O)(O)OP(=O)(O)OP(=O)(O)O)O2)c(=O)[nH]c1=O` [6p024, 5-(2-tert-butylbenzyloxy)methyl-2′-deoxyuridine-5′-triphosphate], the IC50 in experiment [2] (setting [5]) and in experiment [2] (setting [4]) was 0.7 nM in each case. The “Average Weighted Sum ± SD” value in experiment [3] (1x IC50) was 0.44 ± 0.1; in experiment [3] (5x IC50), 1.2 ± 0.1; in experiment [3] (25x IC50) it was 1.9 ± 0.1.

In the case of `Nc1nc2c(ncn2[C@H]2C[C@H](O)[C@@H](COP(=O)(O)OP(=O)(O)OP(=O)(O)O)O2)c(=O)[nH]1` [dGTP, reference compound], the “Mismatch/match ratio (10^2)” value in experiment [1] (template base "A") is listed as 3.6 10^2; in experiment [1] (template base "G"), 0.2 10^2; in experiment [1] (template base "T"), 0.1 10^2.

As for `Cc1cn([C@H]2C[C@H](O)[C@@H](COP(=O)(O)OP(=O)(O)OP(=O)(O)O)O2)c(=O)[nH]c1=O` [dTTP, reference compound], in experiment [2] (adjusted IC50 used to set the concentrations of the termination assay, read-out: Adj IC50 Conc), the IC50 came out at 2.1 nM. For the same compound, the entries for the “Average Weighted Sum ± SD” value in experiment [3] (1x IC50), in experiment [3] (5x IC50) and in experiment [3] (25x IC50) were 0.68, 3.0 and 12.2, respectively.
